Three compounds from publication PMC3717276, “Optimization and validation of mitochondria-based functional assay as a useful tool to identify BH3-like molecules selectively targeting anti-apoptotic Bcl-2 proteins” (BMC Biotechnology, 2013) can be followed below.

In experiment [1] the test system is mitochondria isolated from 2LMP cells. Briefly: Permeabilization of mitochondrial outer membrane (MOMP), Cytochrome C and Smac release by Western blot. In kind it is biochemical, human. Conditions: agent alone at indicated concentrations, 100 mM KCl buffer, 37°C, 60 min, Figure 3A. (In general: Immunoblotting shows a protein as a band on a membrane.)
Protocol: Mitochondria were isolated from breast cancer cells. Cells were harvested by centrifugation at 1200 g (Microcentrifuge 5415R from Eppendorf) for 5 min at 4°C and then washed with ice-cold PBS. Cell pellets were resuspended in 400 μl of mitochondria isolation buffer (MIB: pH 7.4; 0.1 mM EDTA, 10 mM Tris–HCl, 250 mM Sucrose) freshly added 1 mM PMSF and Protease Inhibitor Cocktail (Roche). Cell suspensions were then homogenized with 40 strokes in a Dounce Tissue Grinder on ice and centrifuged at 1200 g for 10 min at 4°C. Supernatants were centrifuged at 12000 g for 10 min at 4°C. Pellet enriched in mitochondria was washed three times with MIB, spun down at 12000 g for 10 min at 4°C. […] Protein concentrations were determined using Bradford Protein Assay (Protein Assay Kit II, Cat# 500–0002, Bio-Rad). […]
Supernatant samples and mitochondrial pellet samples were subjected to protein separation by SDS-PAGE. After transfer to Polyvinylidene fluoride (PVDF) membranes, Cytochrome C, Smac proteins and loading control (Cytochrome C Oxidase IV, COX IV) were analyzed using the following primary antibodies: anti-Cytochrome C polyclonal antibody (1:500; #4272; Cell Signaling Techonology), anti-Smac/DIABLO polyclonal antibody (1:500; PC574; Calbiochem), anti-COX IV monoclonal antibody (3E11; 1:1000; #4850; Cell Signaling Techonology). […]
Experiment [2] addresses T1, Mcl-1 (Homo sapiens, UniProt Q07820).
T1 construct: encoding amino acid residues of 171–327; 8xHis (pHis-TEV vector) (N); made in house; host or cells: E. coli BL21(DE3)
Briefly: SPR competitive solution binding assay (immobilized Bim BH3 peptide). Conditions: read-out: SPR Mcl-1 IC50[nM] ± SD. On the procedure:
The Mcl-1fragment (NM_021960) encoding amino acid residues of 171–327 was cloned into the pHis-TEV vector. Mcl-1 protein with an N-terminal 8×His tag was produced in E. coli BL21(DE3).
(§1) Determination of kon, koff and Kd were calculated by simultaneous non-linear regression using BIAevaluation software (BIAcore Life Sciences).
(§2) IC50 values were determined by Non-linear Least Squares analysis using Graph Pad Prism 5.0 software.

Experiment [3] concerns the target T1, Mcl-1. Briefly: FP competitive binding assay (FAM-Bid tracer). Conditions: read-out: FP assay Mcl-1 Ki[nM] ± SD.
Protocol: After 2–3 hours incubation, the polarization values in milipolarization units (mP) were measured at an excitation wavelength of 485 nm and an emission wavelength of 530 nm using the Synergy H1 Hybrid Microplate Reader (BioTek).
The target of experiment [4] is T2, Bcl-xL (Homo sapiens, UniProt Q07817, DEL45-85).
T2 construct: 8xHis (pHis-TEV vector) (N); made in house; host or cells: E. coli BL21(DE3)
Briefly: SPR competitive solution binding assay (immobilized Bim BH3 peptide). To be noted: read-out: SPR Bcl-xL IC50[nM] ± SD. The protocol:
Lysis buffer contained 50 mM Tris, pH 7.5, 200 mM NaCl, 0.1% BME and Leupectin/Aprotin, while protein was eluted in buffer containing 20 mM Tris, pH7.5, 150 mM NaCl and 5 mM DTT.
as §1, §2

For experiment [5], the target named is T2, Bcl-xL. Kind of experiment: FP competitive binding assay (FAM-Bak tracer). To be noted: read-out: FP assay Bcl-xL Ki[nM] ± SD.

Ends that are not written are not given here.

T1 sequence (Q07820 171-327): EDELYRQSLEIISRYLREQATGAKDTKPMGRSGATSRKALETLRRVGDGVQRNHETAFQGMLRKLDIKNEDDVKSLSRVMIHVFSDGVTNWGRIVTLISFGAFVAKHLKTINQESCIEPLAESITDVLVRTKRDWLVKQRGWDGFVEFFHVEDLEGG
T2 sequence (Q07817 with tags, fused parts or gaps DEL45-85): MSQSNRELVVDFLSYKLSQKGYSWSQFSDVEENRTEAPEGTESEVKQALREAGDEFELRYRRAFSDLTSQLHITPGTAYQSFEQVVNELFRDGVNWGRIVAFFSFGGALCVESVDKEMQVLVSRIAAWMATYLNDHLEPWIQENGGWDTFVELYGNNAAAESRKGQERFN

As for `CN(C)CC[C@H](CSc1ccccc1)Nc1ccc(S(=O)(=O)NC(=O)c2ccc(N3CCN(Cc4ccccc4-c4ccc(Cl)cc4)CC3)cc2)cc1[N+](=O)[O-]` [ABT-737], in experiment [1], the “Cytochrome C and Smac release from 2LMP mitochondria” value is “effectively induced Cytochrome C and Smac release”.
With `CSCC[C@H](NC(=O)[C@H](CCCNC(=N)N)NC(=O)[C@H](CCCNC(=N)N)NC(=O)[C@H](CC(C)C)NC(=O)[C@H](CCC(=O)O)NC(=O)[C@H](CCCNC(=N)N)NC(=O)CNC(=O)[C@H](Cc1ccc(O)cc1)NC(=O)[C@H](CCCNC(=N)N)NC(=O)[C@H](CCC(N)=O)NC(=O)[C@H](C)NC(=O)[C@H](C)NC(=O)[C@H](Cc1c[nH]c2ccccc12)NC(=O)[C@H](CC(C)C)NC(=O)[C@@H](N)CC(N)=O)C(=O)N[C@@H](CO)C(=O)N[C@@H](CC(=O)O)C(=O)N[C@@H](CCC(=O)O)C(=O)N[C@@H](Cc1ccccc1)C(=O)N[C@H](C(=O)N[C@@H](CC(=O)O)C(=O)N[C@@H](CO)C(=O)N[C@@H](Cc1ccccc1)C(=O)N[C@@H](CCCCN)C(=O)N[C@@H](CCCCN)C(=O)NCC(=O)O)C(C)C` [Bad], in experiment [2], the IC50 is above 30000 nM. Further, in experiment [3], the Ki is above 20000 nM.
For the compound PAELEVECATQLRRFGDKLNFRQKLL [Noxa], the IC50 in experiment [4] is above 30000 nM. Further, in experiment [5], the Ki was above 10000 nM.

Broadly, the IC50 is the concentration at which inhibition is half-maximal. The Ki is a dissociation constant, usually derived from enzyme kinetics or from competition with a known ligand.
